From US7795279B2, “Method of inhibiting FLT3 kinase” (Janssen Pharmaceutica NV, priority 2005, dated 2010) come the findings set out here.

Usually IC50 stands for the concentration that inhibits the measured activity by half. Higher therefore signals a need for much substance. In general, inhibition refers to the percentage by which the read-out fell short of the control. Higher therefore signals strong suppression.

For one series, the system named is MV4-11 tumor xenografts. Put plainly: Nude mouse MV4-11 human tumor xenograft regression model. It counts as in vivo. The note with it: for final tumor weight: study termination. How it is done:
Female athymic nude mice (CD-1, nu/nu, 9-10 weeks old) were obtained from Charles River Laboratories (Wilmington, Mass.) and were maintained according to NIH standards. All mice were group housed (5 mice/cage) under clean-room conditions in sterile micro-isolator cages on a 12-hour light/dark cycle in a room maintained at 21-22° C. and 40-50% humidity. Mice were fed irradiated standard rodent diet and water ad libitum. All animals were housed in a Laboratory Animal Medicine facility that is fully accredited by the American Association for Assessment and Accreditation of Laboratory Animal Care (AAALAC). All procedures involving animals were conducted in compliance with the NIH Guide for the Care and Use of Laboratory Animals and all protocols were approved by an […] Animal Care and Use Committee (IACUC). The human leukemic MV4-11 cell line was obtained from the American Type Culture Collection (ATCC Number: CRL-9591) and propagated in RPMI medium containing 10% FBS (fetal bovine serum) and 5 ng/mL GM-CSF (R&D Systems). […] MV4-11 cells express constitutively active phosphorylated FLT3 receptor as a result of this naturally occurring FLT3/ITD mutation. Strong anti-tumor activity against MV4-11 tumor growth in the nude mouse tumor xenograft model is a desirable quality of the invention. […] Female athymic nude mice weighing no less than 20-21 grams were inoculated subcutaneously in the left inguinal region of the thigh with 5×10^6 tumor cells in a delivery volume of 0.2 mL. For regression studies, the tumors were allowed to grow to a pre-determined size prior to initiation of dosing.

Series [1] is described as follows: Body weight and overt toxicity in the MV4-11 xenograft study. The following applies: 11-day oral treatment, doses up to 200 mg/kg/day. How it is done:
If tumors in the control mice reached ˜10% of body weight (˜2.0 grams), the study was to be terminated. […] During the study, tumor growth was measured three times-a-week (M, W, F) using electronic Vernier calipers. Tumor volume (mm^3) was calculated using the formula […], where L=length (mm) and W=width (shortest distance in mm) of the tumor. Body weight was measured three times-a-week and a loss of body weight >10% was used as an indication of lack of compound tolerability. Unacceptable toxicity was defined as body weight loss >20% during the study. Mice were closely examined daily at each dose for overt clinical signs of adverse, drug-related side effects.
Mice were weighed three times each week (M, W, F) during the study and were examined daily at the time of dosing for overt clinical signs of any adverse, drug-related side effects.

For another series, the system named is MV4-11 cells. Put plainly: Inhibition of MV4-11 cell proliferation (CellTiterGlo). It counts as cell-based. The following applies: Homo sapiens, 72 hours growth, uncertainty ±20%. How it is done: To assess the cellular potency of compounds of the present invention, FLT3 specific growth inhibition was measured in the leukemic cell line MV4-11 (ATCC Number: CRL-9591). MV4-11 cells are derived from a patient with childhood acute myelomonocytic leukemia with an 11q23 translocation resulting in a MLL gene rearrangement and containing an FLT3-ITD mutation (AML subtype M4)(1,2). MV4-11 cells cannot grow and survive without active FLT3ITD.
To measure proliferation inhibition by compounds of the present invention, the luciferase based CellTiterGlo reagent (Promega), which quantifies total cell number based on total cellular ATP concentration, was used. Cells are plated at 10,000 cells per well in 100 ul of in RPMI media containing penn/strep, 10% FBS and 1 ng/ml GM-CSF or 1 ng/ml IL-3 for MV4-11 and Baf3 cells respectively.
Compound dilutions or 0.1% DMSO (vehicle control) are added to cells and the cells are allowed to grow for 72 hours at standard cell growth conditions (37° C., 5% CO2). For activity measurements in MV4-11 cells grown in 50% plasma, cells were plated at 10,000 cells per well in a 1:1 mixture of growth media and human plasma (final volume of 100 μL). To measure total cell growth an equal volume of CellTiterGlo reagent was added to each well, according to the manufacturer's instructions, and luminescence was quantified. Total cell growth was quantified as the difference in luminescent counts (relative light units, RLU) of cell number at Day 0 compared to total cell number at Day 3 (72 hours of growth and/or compound treatment). One hundred percent inhibition of growth is defined as an RLU equivalent to the Day 0 reading. Zero percent inhibition was defined as the RLU signal for the DMSO vehicle control at Day 3 of growth.
Data points are an average of triplicate samples. […] Inhibition and IC50 data analysis was done with GraphPad Prism using a non-linear regression fit with a multiparamater, sigmoidal dose-response (variable slope) equation.
(ATP-based viability assays read luminescence as a measure of living cells.)

A further series relates to Baf3 cells. The series is described as follows: Baf3 cell proliferation (non-specific toxicity control). It counts as cell-based, murine. The following applies: Mus musculus, IL-3 driven. The text has this:
The IL-3 dependent, murine b-cell lymphoma cell line, Baf3, were used as a control to confirm the selectivity of compound inhibition of proliferation for representatives of the present invention by measuring non-specific growth inhibition by the compounds of the present invention (data not shown). To measure proliferation inhibition by compounds of the present invention, the luciferase based CellTiterGlo reagent (Promega), which quantifies total cell number based on total cellular ATP concentration, was used. […] Compound dilutions or 0.1% DMSO (vehicle control) are added to cells and the cells are allowed to grow for 72 hours at standard cell growth conditions (37° C., 5% CO2). […] To measure total cell growth an equal volume of CellTiterGlo reagent was added to each well, according to the manufacturer's instructions, and luminescence was quantified. Total cell growth was quantified as the difference in luminescent counts (relative light units, RLU) of cell number at Day 0 compared to total cell number at Day 3 (72 hours of growth and/or compound treatment). One hundred percent inhibition of growth is defined as an RLU equivalent to the Day 0 reading. Zero percent inhibition was defined as the RLU signal for the DMSO vehicle control at Day 3 of growth. MV4-11 cells express the FLT3 internal tandem duplication mutation, and thus are entirely dependent upon FLT3 activity for growth. […]

Series [2] concerns FLT3 phosphorylation in MV4-11 tumors. The series is described as follows: FLT3 phosphorylation in MV4-11 tumors (immunoprecipitation / western blot). The series is classed as in vivo, mouse. The note with it: tumors harvested 6 hours later. How it is done: Tumors were harvested 6 hours later and snap frozen for assessment of FLT3 phosphorylation by western blots.
Harvested tumors were frozen and processed for immunoblot analysis of FLT3 phosphorylation in the following manner: 200 mg of tumor tissue was dounce homogenized in lysis buffer (50 mM Hepes, 150 mM NaCl, 10% Glycerol, 1% Triton-X-100, 10 mM NaF, 1 mM EDTA, 1.5 mM MgCl2, 10 mM NaPyrophosphate) supplemented with phosphatase (Sigma Cat# P2850) and protease inhibitors (Sigma Cat #P8340). Insoluble debris was removed by centrifugation at 1000×g for 5 minutes at 4° C. […] Immunoprecipitated FLT3 from tumor lysates were then washed four times with lysis buffer and separated by SDS-PAGE. […] Blots were then stripped and reprobed with anti-FLT3 antibody for normalization of phosphorylation signals.

Take `CN(C)CC(=O)N1CCC(c2ccc(NC(=O)c3nc(C#N)c[nH]3)c(C3=CCCCC3)c2)CC1` [Example 38, 4-Cyano-1H-imidazole-2-carboxylic acid {2-cyclohex-1-enyl-4-[1-(2-dimethylamino-acetyl)-piperidin-4-yl]-phenyl}-amide]: the “tumor growth delay compared to vehicle-treated control group” value in the series with MV4-11 tumor xenografts (10 mg/kg b.i.d. oral, 11 days) is given as “no significant growth delay”. Moreover, the final tumor weight entry is given as “no significant decrease in final tumor weight” in the series on MV4-11 tumor xenografts (10 mg/kg b.i.d. oral) and “no measurable tumor mass detectable” in the series on MV4-11 tumor xenografts (50 mg/kg b.i.d. oral). Also, the “effects on body weight” value in series [1] is recorded as “no significant adverse effects on body weight”. Besides, the IC50 with MV4-11 cells stood at 23.5 nM. In the series on Baf3 cells, this molecule came in with an inhibition at 3 µM below 50%. The “level of FLT3 phosphorylation in MV4-11 tumors versus vehicle” value in series [2] (single dose 10 mg/kg po) is given as “partial reduction”; in series [2] (single dose 100 mg/kg po) it was “biologically significant reduction”.
